Data: article PMC8131325 (The Journal of Biological Chemistry, 2021)
Read-outs that look alike come from different tables or passages of the source. Ends that are not written are not given here.

Legend:
FABP3 = target: T1, FABP3 (Homo sapiens, UniProt P05413); test: Quartz crystal microbalance (QCM) binding assay to immobilized FABP3; conditions: for kon / koff: QCM, immobilized His6-FABP3, 50 mM Tris-HCl pH 7.4, room temperature, kobs = koff + kon[αSyn]
T1 construct: made in house; host or cells: E. coli BLR(DE3), pET28a-derived vector (NdeI/XhoI), synthetic gene (Invitrogen GeneArt)
T1 sequence (P05413 whole entry): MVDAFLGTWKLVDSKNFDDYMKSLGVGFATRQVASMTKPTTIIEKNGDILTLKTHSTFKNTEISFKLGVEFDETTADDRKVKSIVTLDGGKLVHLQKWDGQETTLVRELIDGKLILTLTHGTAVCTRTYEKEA
Description: The binding affinities between αSyn and FABP3 were estimated directly using an Affinix QNμ quartz crystal microbalance apparatus operating at room temperature. Samples of His6-FABP3 were affixed to the gold-plated quartz sensor by nickel chelating binding groups as follows. Before binding, the gold sensor was washed with 1% SDS and piranha solution (H2SO4:H2O2 = 3:1). Next, 100 μl of 0.5 mM 3, 3’-dithiobis[N-(5-amino-5-carboxypentyl)propionamide-N’,N’-diacetic acid]dihydrochloride (C₂-NTA, Dojindo) solution was applied and incubated for 10 min at room temperature. This solution was rinsed with Milli-Q water, and 500 μl of Ni+ solution (20 mM Hepes-NaOH buffer, pH 7.5, containing 150 mM NaCl,50 mM EDTA, and 10 mM NiSO4) was added. After a 10 min incubation, the sensor was washed again with Milli-Q, then a 0.1 μM sample of His6-FABP3 in 50 mM Tris-HCl buffer, pH 7.4 was applied. The signal from the quartz sensor was then monitored over a 1 s interval with gentle stirring. To initiate the data sampling run, samples of αSyn with varying concentrations were then applied to the sensor. After each experimental run, the bound His6-FABP3 was removed by the application of 500 μl imidazole solution (0.4 M imidazole/20 mM Hepes pH 7.5/150 mM NaCl) for 30 min, followed by a Milli-Q rinse, and reattachment of Ni-ion and fresh His6-FABP3 to reset the sensor to its original state. Analysis of the raw traces to obtain quantitative affinity values were performed using the software package (AQUA 2.0) provided by the manufacturer, according to the following linear relationship between the observed rate constant kobs and the concentration of αSyn; kobs = koff + kon[αSyn]. Estimated kon and koff values were then used to determine the Kd.

FABP3 F16S = target: T2, FABP3 F16S (Homo sapiens, UniProt P05413, F17S); test: QCM binding assay to immobilized FABP3 F16S mutant
T2 construct: made in house
T2 sequence (P05413 whole entry F17S): as the sequence (P05413 whole entry) above, with F17S counted along it
Description: The binding affinities between αSyn and FABP3 were estimated directly using an Affinix QNμ quartz crystal microbalance apparatus operating at room temperature. Samples of His6-FABP3 were affixed to the gold-plated quartz sensor by nickel chelating binding groups as follows. Before binding, the gold sensor was washed with 1% SDS and piranha solution (H2SO4:H2O2 = 3:1). Next, 100 μl of 0.5 mM 3, 3’-dithiobis[N-(5-amino-5-carboxypentyl)propionamide-N’,N’-diacetic acid]dihydrochloride (C₂-NTA, Dojindo) solution was applied and incubated for 10 min at room temperature. This solution was rinsed with Milli-Q water, and 500 μl of Ni+ solution (20 mM Hepes-NaOH buffer, pH 7.5, containing 150 mM NaCl,[…] 10 mM NiSO4) was added. After a 10 min incubation, the sensor was washed again with Milli-Q, then a 0.1 μM sample of His6-FABP3 in 50 mM Tris-HCl buffer, pH 7.4 was applied. The signal from the quartz sensor was then monitored over a 1 s interval with gentle stirring. To initiate the data sampling run, samples of αSyn with varying concentrations were then applied to the sensor. After each experimental run, the bound His6-FABP3 was removed by the application of 500 μl imidazole solution (0.4 M imidazole/20 mM Hepes pH 7.5/150 mM NaCl) for 30 min, followed by a Milli-Q rinse, and reattachment of Ni-ion and fresh His6-FABP3 to reset the sensor to its original state. Analysis of the raw traces to obtain quantitative affinity values were performed using the software package (AQUA 2.0) provided by the manufacturer, according to the following linear relationship between the observed rate constant kobs and the concentration of αSyn; kobs = koff + kon[αSyn]. Estimated kon and koff values were then used to determine the Kd.

αSyn = test: Thio-T fluorescence assay of αSyn fibril formation with added protein; type: biochemical, Human; conditions: αSyn 69 μM, 50 mM Tris-HCl pH 7.4, 150 mM NaCl, 37 °C, agitation
Description: The formation of αSyn fibrils were detected in fluorescence assays using Thio-T. Samples (1 mg/ml; 69 μM) of either WT or mutant αSyn were incubated in Thio-T assay buffer (50 mM Tris-HCl, pH 7.4, containing 150 mM NaCl and 20 μM Thio-T) with or without additional FABP3 and/or αSyn-derived oligopeptides. One hundred 50 μl aliquots were incubated in 96-well plates (8 × 12-well plate; Greiner) at 37 °C using an ARVOX4 (PerkinElmer) fluorescent plate reader with continuous agitation. The fluorescence signal of the samples (Ex: 440 nm, Em: 486 nm) were measured at 15 min intervals. In experiments where the effects of delayed FABP3 addition were probed (Fig. 1C), an equimolar concentration of FABP3 was added to the respective wells after an initial agitation regimen of 3, 8, or 24 h. Data shown are the average of data from three 150 μl samples, and error bars indicate standard errors of the mean.

N2a cells = test: Cell viability by Tali Image-Based Cytometer (Calcein-AM/ethidium homodimer); parameters: species or system Mouse; conditions: protein co-expressed with FABP3 in N2a cells, 30 μM 6-OHDA 24 h
Description: Cell viability measurements using a Tali Image-Based Cytometer (Thermo Fisher Scientific) were performed according to previous methods ([59]). After 24 h incubation, media was changed to 0% FBS+MEM containing 30 μM 6-hydroxydopamine and incubated for 24 h. Statistical comparisons were performed by Welch’s t test.

[1] = Dynamic light scattering of fibril-forming samples; type: physicochemical; conditions: DLS, 25 °C
Description: Dynamic light scattering measurements were performed on an Otsuka Electronics FDLS-3000 monitor with a laser wavelength of 532 nm at an observation angle of 90°. Sample protein concentrations were adjusted to 0.3 mg/ml, and a sample volume of 2 ml was used for measurements. Samples were filtered before measurement.

| Compound | kon (FABP3) | koff (FABP3; read-out: koff) [s⁻¹] | other results |
| --- | --- | --- | --- |
| CCCCC/C=C\C/C=C\C/C=C\C/C=C\CCCC(=O)O [arachidonic acid, reference compound] | 0.8 × 10^5 M^−1・s^−1 | 0.0006 | Kd (FABP3): 6.8 nM; Kd (FABP3 F16S): 2090 nM; koff (FABP3 F16S): 0.0047 s⁻¹; kon (FABP3 F16S): 0.02 × 10^5 M^−1・s^−1 |
| EEGFQDFEPEA [αSynP130-140 Y133F/Y136F] | 5.4 × 10^5 M^−1・s^−1 | 0.0011 | – |
| EEGFQDWEPEA [αSynP130-140 Y133F/Y136W] | 3.2 × 10^5 M^−1・s^−1 | 0.0019 | Kd (FABP3): 6.1 nM |
| EEGFQDYEPEA [αSynP130-140Y133F] | 7.5 × 10^5 M^−1・s^−1 | 0.0015 | – |
| EEGWQDWEPEA [αSynP130-140Y133W/Y136W] | 2.4 × 10^5 M^−1・s^−1 | 0.0015 | – |
| EEGYQDFEPEA [αSynP130-140Y136F] | 4.8 × 10^5 M^−1・s^−1 | 0.0037 | – |
| EEGYQDWEPEA [αSynP130-140Y136W] | 3.8 × 10^5 M^−1・s^−1 | 0.0024 | – |
| EEGYQDYEPEA [αSynP130-140] | 2.0 × 10^5 M^−1・s^−1 | 0.0012 | Kd (FABP3): 6.1 nM |
| bovine serum albumin | – | – | effect of added protein on αSyn fibril formation (αSyn): no significant suppressive effects in fibrillation of αSyn |
| lysozyme | – | – | effect of added protein on αSyn fibril formation (αSyn): no significant suppressive effects in fibrillation of αSyn |
| α-synuclein [αSyn] | 6.4 × 10^5 M^−1・s^−1 | – | Kd (FABP3; QCM (Affinix QNμ), His6-FABP3 immobilized via Ni-NTA on gold sensor, 50 mM Tris-HCl pH 7.4, room temperature, Kd determined from estimated kon and koff): 7.2 nM; koff (FABP3): 0.0046 s⁻¹; binding to FABP3 F16S (in words) (FABP3 F16S): unable to bind; Alive cells (N2a cells): 77%; Dead cells (N2a cells): 0%; Dying cells (co-stained with Calcein-AM and EthD-1) (N2a cells; control 12%): 23%; average particle size ([1]; αSyn alone, absence of FABP3, after 1200 min incubation): 6 μm; average particle size ([1]; αSyn in the presence of FABP3, after 1200 min incubation): 0.63 μm |
